Legend:
[1] = tested on: HCV replicon in Huh7 cells; experiment: HCV replicon cell-based assay; set-up: species or system HCV strain 1B; details: Hepatitis C virus, Huh-7, 96 h; HCV replicon, Huh7 cells, 4 days; activity ranges; read-out: EC50
Description: An HCV replicon whole cell system was established as described by Lohmann V, Korner F, Koch J, Herian U, Theilmann L, Bartenschlager R., Science 285(5424):110-3 (1999). This system enabled us to evaluate the effects of our HCV Protease compounds on HCV RNA replication. Briefly, using the HCV strain 1B sequence described in the Lohmann paper (Assession number:AJ238799), an HCV cDNA was generated encoding the 5′ internal ribosome entry site (IRES), the neo gene, the EMCV-IRES and the HCV nonstructural proteins, NS3-NS5B, and 3′ NTR. […] Resulting cell lines were characterized for positive and negative RNA production and protein production over time.
Huh7 cells, constitutively expressing the HCV replicon, were grown in DMEM containing 10% FCS (Fetal calf serum) and 1 mg/ml G418 (Gibco-BRL). Cells were seeded the night before (1.5×10^4 cells/well) in 96-well tissue-culture sterile plates. Compound was prepared in DMEM containing 4% FCS, 1:100 Penicillin/Streptomysin, 1:100 L-glutamine and 0.5% DMSO. Compound/DMSO mixes were added to the cells and incubated for 4 days at 37° C. After 4 days, cells were either lyzed using the Rneasy kit (Qiagen) to isolate and purify RNA for an EC50 determination or assessed for cytotoxicity using alamar Blue (Trek Diagnotstic Systems) for a CC50 reading. For an EC50 determination, purified total RNA was normalized using RiboGreen (Jones L J, Yue S T, Cheung C Y, Singer V L, Anal. Chem., 265(2):368-74 (1998)) and relative quantitation of HCV RNA expression assessed using the Taqmann procedure (Kolykhalov A A, Mihalik K, Feinstone S M, Rice C M, Journal of Virology 74, 2046-2051 (2000)). Briefly, RNA made to a volume of 5 μl (≦1 ng) was added to a 20 μl Ready-Mix containing the following: 5×EZ rTth buffer, 3 mM MnOAc2, 3 mM dNTPs, 200 nM forward primer, 600 nM reverse primer, 100 nM probe and rTth polymerase. Samples containing known concentrations of HCV RNA transcript were run as standards. Using the following cycling protocol (95° C., 1 min; 60° C., 0.5 min; 95° C., 2 min; 40 cycles of 94° C., 0.5 min, 60° C.; 1 min; and completing with 60° C., 10 min), HCV RNA expression was quantitated as described in the Perkin Elmer manual. The toxicity of compound (CC50) was determined by adding 1/10th volume of alamar Blue to the media incubating the cells. After 4 hr, the fluorescence signal from each well was read, with an excitation wavelength at 530 nm and an emission wavelength of 580 nm, using the Cytofluor Series 4000 (Perspective Biosystems).

[2] = molecular target: HCV NS3/4A protease complex (Hepatitis C virus genotype 1a, UniProt P27958, C1454S/C1711G); experiment: Recombinant HCV NS3/4A protease complex FRET peptide assay (strain not stated); type: biochemical; details: IC50, NS3/4A protease enzyme assay, strain not stated; activity ranges
Description: The purpose of this in vitro assay was to measure the inhibition of HCV NS3 protease complexes, derived from the BMS, H77C or J416S strains, as described below, by compounds of the present invention.
Serum from an HCV-infected patient was obtained from Dr. T. Wright, San Francisco Hospital. An engineered full-length cDNA template of the HCV genome (BMS strain) was constructed from DNA fragments obtained by reverse transcription-PCR (RT-PCR) of serum RNA and using primers selected on the basis of homology between other genotype 1a strains. […] The infectious clones, H77C (1a genotype) and J4L6S (1b genotype) were obtained from R. Purcell (NIH) and the sequences are published in genebank (AAB67036, see Yanagi, M., Purcell, R. H., Emerson, S. U. and Bukh, J. Proc. Natl. Acad. Sci. U.S.A. 94(16),8738-8743 (1997); AF054247, see Yanagi, M., St Claire, M., Shapiro, M., Emerson, S. U., Purcell, R. H. and Bukh, J, Virology 244 (1), 161-172. (1998)).
The BMS, H77C and J4L6S strains were used for production of recombinant NS3/4A protease complexes. DNA encoding the recombinant HCV NS3/4A protease complex (amino acid 1027 to 1711) for these strains were manipulated as described by P. Gallinari et al. (see Gallinari P, Paolini C, Brennan D, Nardi C, Steinkuhler C, De Francesco R. Biochemistry. 38(17):5620-32, (1999)). Briefly, a three-lysine solubilizing tail was added at the 3′-end of the NS4A coding region. The cysteine in the P1 position of the NS4A-NS4B cleavage site (amino acid 1711) was changed to a glycine to avoid the proteolytic cleavage of the lysine tag. Furthermore, a cysteine to serine mutation was introduced by PCR at amino acid position 1454 to prevent the autolytic cleavage in the NS3 helicase domain. The variant DNA fragment was cloned in the pET21b bacterial expression vector and the NS3/4A complex was expressed in E. coli BL21 (DE3) following the protocol described by P. Gallinari et al. (see Gallinari P, Brennan D, Nardi C, Brunetti M, Tomei L, Steinkuhler C, De Francesco R., J Virol. 72(8):6758-69 (1998)) with modifications. Briefly, NS3/4A expression was induced with 0.5 mM IPTG for 22 hr at 20° C. […] The cells were resuspended in lysis buffer (10 mL/g) consisting of 25 mM HEPES, pH 7.5, 20% glycerol, 500 mM NaCl, 0.5% Triton-X100, 1 ug/ml lysozyme, 5 mM MgCl2, 1 ug/ml DNaseI 5 mM β-Mercaptoethanol (βME), Protease inhibitor—EDTA free, homogenized and incubated for 20 mins at 4° C. The homogenate was sonicated and clarified by ultra-centrifugation at 235000 g for 1 hr at 4° C. Imidazole was added to the supernatant to a final concentration of 15 mM and the pH adjusted to 8.0. The crude protein extract was loaded on a Ni-NTA column pre-equilibrated with buffer B (25 mM HEPES, pH 8.0, 20% glycerol, 500 mM NaCl, 0.5% Triton-X100, 15 mM imidazole, 5 mM βME). The sample was loaded at a flow rate of 1 mL/min. The column was washed with 15 column volumes of buffer C (same as buffer B except with 0.2% Triton-X100). The protein was eluted with 5 column volumes of 200 mM Imidazole in buffer.
NS3/4A protease complex-containing fractions were pooled and loaded on a desalting column Superdex-S200 pre-equilibrated with buffer D (25 mM HEPES, pH 7.5, 20% glycerol, 300 mM NaCl, 0.2% Triton-X100, 10 mM βME). Sample was loaded at a flow rate of 1 mL/min. NS3/4A protease complex-containing fractions were pooled and concentrated to approximately 0.5 mg/ml.

Sequence of HCV NS3/4A protease complex (P27958 1027-1711, stated change not applied): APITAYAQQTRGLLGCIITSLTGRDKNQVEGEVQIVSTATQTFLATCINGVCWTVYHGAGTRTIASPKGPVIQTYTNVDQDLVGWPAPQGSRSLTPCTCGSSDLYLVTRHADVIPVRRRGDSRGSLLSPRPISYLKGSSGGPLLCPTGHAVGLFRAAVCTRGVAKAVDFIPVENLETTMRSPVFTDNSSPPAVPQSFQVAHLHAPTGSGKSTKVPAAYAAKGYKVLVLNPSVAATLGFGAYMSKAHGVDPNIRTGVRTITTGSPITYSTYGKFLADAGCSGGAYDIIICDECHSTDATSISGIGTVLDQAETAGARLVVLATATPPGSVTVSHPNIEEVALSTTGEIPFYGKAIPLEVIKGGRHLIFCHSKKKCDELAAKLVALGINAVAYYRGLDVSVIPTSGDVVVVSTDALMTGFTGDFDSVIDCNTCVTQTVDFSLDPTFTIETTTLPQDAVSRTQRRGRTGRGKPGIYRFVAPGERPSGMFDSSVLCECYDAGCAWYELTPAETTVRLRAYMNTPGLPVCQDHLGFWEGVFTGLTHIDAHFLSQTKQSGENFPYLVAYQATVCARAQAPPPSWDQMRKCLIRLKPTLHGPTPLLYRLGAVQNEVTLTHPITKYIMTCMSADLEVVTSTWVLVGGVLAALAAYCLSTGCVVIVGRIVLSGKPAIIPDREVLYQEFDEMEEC
Sequence of HCV NS3/4A protease complex (P27958 1027-1711, stated change not applied): as above

Compound	EC50 [1] [nM]	IC50 [2] [nM]
CCOC(=O)N[C@H](C(=O)N1C[C@H](Oc2cc(-c3ccccc3)nc3cc(OC)ccc23)C[C@H]1C(=O)N[C@]1(C(=O)NS(=O)(=O)C2CC2)CC1CC)C(C)C (stereo partly drawn) [Compound 7]	< 500	< 50
C=CC1CC1(NC(=O)[C@@H]1C[C@@H](Oc2cc(-c3ccccc3)nc3cc(OC)ccc23)CN1C(=O)[C@@H](NC(=O)OC(C)(C)C)C(C)(C)C)C(=O)NS(=O)(=O)C1CC1 (stereo partly drawn) [Compound 91]	< 50	< 50
C=CC1C[C@]1(NC(=O)[C@@H]1C[C@@H](Oc2cc(-c3ccccc3)nc3cc(OC)ccc23)CN1C(=O)C(NC(=O)OC(C)(C)C)C(C)(C)C)C(=O)NS(=O)(=O)c1ccccc1C (stereo partly drawn) [Compound 63]	< 500	< 50
C=CC1C[C@]1(NC(=O)[C@@H]1C[C@@H](Oc2cc(-c3ccccc3)nc3cc(OC)ccc23)CN1C(=O)C(NC(=O)OC(C)(C)C)C(C)(C)C)C(=O)NS(=O)(=O)c1ccccc1I (stereo partly drawn) [Compound 56]	< 500	< 50
C=CC1C[C@]1(NC(=O)[C@@H]1C[C@@H](Oc2cc(-c3ccccc3)nc3cc(OC)ccc23)CN1C(=O)[C@H](CC(C)C)NC(=O)OC(C)(C)C)C(=O)NS(=O)(=O)C(C)C (stereo partly drawn) [Compound 34]	< 500	< 50
C=CC1CC1(NC(=O)OC(C)(C)C)C(=O)N1C[C@H](Oc2cc(-c3ccccc3)nc3cc(OC)ccc23)C[C@H]1C(=O)N[C@]1(C(=O)NS(=O)(=O)C2CC2)CC1CC (stereo partly drawn) [Compound 69]	< 500	< 500
C=CC1C[C@]1(NC(=O)[C@@H]1C[C@@H](Oc2cc(-c3ccccc3)nc3cc(OC)ccc23)CN1C(=O)[C@@H](N)C(C)(C)C)C(=O)NS(=O)(=O)C1CC1 (stereo partly drawn) [Compound 28]	< 5000	< 50
C=C[C@@H]1C[C@]1(NC(=O)C1C[C@@H](Oc2cc(-c3ccccc3)nc3cc(OC)ccc23)CN1C(=O)[C@@H](NC(=O)CC1CC1)C(C)(C)C)C(=O)NS(=O)(=O)C1CC1 (stereo partly drawn) [Compound 104, 1-[2S-(2-cyclopropyl-acetylamino)-3,3-dimethyl-butyryl]-4R-(7-methoxy-2-phenyl-quinolin-4-yloxy)-pyrrolidine-2S-carboxylic acid (1R-cyclopropanesulfonylaminocarbonyl-2S-vinyl-cyclopropyl)-amide]	< 50	< 50
C=C[C@@H]1C[C@]1(NC(=O)C1C[C@@H](Oc2cc(-c3ccccc3)nc3cc(OC)ccc23)CN1C(=O)[C@@H](NC(=O)CC(C)(C)C)C(C)(C)C)C(=O)NS(=O)(=O)C1CC1 (stereo partly drawn) [Compound 103, 1-[2S-(3,3-Dimethyl-butyrylamino)-3,3-dimethyl-butyryl]-4R-(7-methoxy-2-phenyl-quinolin-4-yloxy)-pyrrolidine-2S-carboxylic acid (1R-cyclopropanesulfonylaminocarbonyl-2S-vinyl-cyclopropyl)amide]	< 50	< 50
C=C[C@@H]1C[C@]1(NC(=O)C1C[C@@H](Oc2cc(-c3ccccc3)nc3cc(OC)ccc23)CN1C(=O)[C@@H](NC(=O)c1ccco1)C(C)(C)C)C(=O)NS(=O)(=O)C1CC1 (stereo partly drawn) [Compound 110, 1-{2S-[(furan-2-carbonyl)-amino]-3,3-dimethyl-butyryl}-4R-(7-methoxy-2-phenyl-quinolin-4-yloxy)-pyrrolidine-2S-carboxylic acid (1R-cyclopropanesulfonylaminocarbonyl-2S-vinyl-cyclopropyl)-amide]	< 500	< 50
C=C[C@@H]1C[C@]1(NC(=O)C1CC(Oc2cc(-c3ccccc3)nc3cc(OC)ccc23)CN1C(=O)[C@@H](NS(=O)(=O)C1CC1)C(C)(C)C)C(=O)NS(=O)(=O)C1CC1 (stereo partly drawn) [Compound 118, 1-(2S-cyclopropanesulfonylamino-3,3-dimethyl-butyryl)-4R-(7-methoxy-2-phenyl-quinolin-4-yloxy)-pyrrolidine-2S-carboxylic acid (1R-cyclopropanesulfonylamino-carbonyl-2S-vinyl-cyclopropyl)-amide]	< 500	< 50
C=CCC[C@](C)(NC(=O)[C@@H]1C[C@@H](Oc2cc(-c3ccccc3)nc3cc(OC)ccc23)CN1C(=O)C(NC(=O)OC(C)(C)C)C(C)(C)C)C(=O)NS(=O)(=O)c1ccc(C#N)cc1 (stereo partly drawn) [Compound 41]	< 500	< 50
CCCNC(=O)N[C@H](C(=O)N1C[C@H](Oc2cc(-c3ccccc3)nc3cc(OC)ccc23)C[C@H]1C(=O)N[C@]1(C(=O)NS(=O)(=O)C2CC2)CC1CC)C(C)C (stereo in doubt) [Compound 8, 4-(7-methoxy-2-phenylquinolin-4-yloxy)-1-[3-methyl-2-(3-propylureido)butyryl]pyrrolidine-2-carboxylic acid (1-cyclopropanesulfonylaminocarbonyl-2-ethylcyclopropyl)amide]	< 50	< 50
COc1ccc2c(OC3C[C@@H](C(=O)NC4(C(=O)NS(=O)(=O)C5CC5)CC45CCC5)N(C(=O)[C@@H](NC(=O)OC(C)(C)C)C(C)(C)C)C3)cc(-c3ccccc3)nc2c1 (stereo partly drawn) [Compound 136, {1-[2-(1-Cyclopropanesulfonylaminocarbonyl-spiro[2.3]hex-1-ylcarbamoyl)-4-(7-methoxy-2-phenyl-quinolin-4-yloxy)-pyrrolidine-1-carbonyl]-2,2-dimethyl-propyl}-carbamic acid tert-butyl ester]	< 5000	< 500
C=C[C@@H]1C[C@]1(NC(=O)C1C[C@@H](Oc2cc(-c3ccccc3)nc3cc(OC)ccc23)CN1C(=O)[C@@H](NC(=O)COc1ccc(OC)cc1)C(C)(C)C)C(=O)NS(=O)(=O)C1CC1 (stereo partly drawn) [Compound 108]	< 500	< 50
